Reference: US20040033982A1, “Viral inhibition by n-docosanol” (priority 2001, published 2004)

System: HSV-2
Experiment: HSV-2 internalization into Vero cells (citrate buffer wash)
Assay type: cell-based
Description: FIG. 9 depicts data showing that HSV-2 remains on the surface of n-docosanol treated Vero cells for prolonged times. Vero cells were cultured as described in the legend to FIG. 7 and incubated overnight. The cultures were then chilled to 4° C., inoculated with 100 PFU of HSV-2, and incubated 3 hours at 4° C. At time zero the cultures were washed with medium, inoculated with fresh medium (containing the indicated inhibitor) and incubated at 37° C. At each indicated time period, the cultures were washed with citrate buffer (pH 2.5) and reinoculated with fresh medium (lacking inhibitor). After a total of 44 hours incubation the cultures were stained and scored for HSV-2-induced plaques. The data are expressed as geometric means and standard errors derived from triplicate cultures per group.
In this experiment, HSV-2 was incubated with Vero cells in the absence or presence of n-docosanol at 4° C. to allow for receptor binding of the virus. At the end of 3 hours, all cultures were washed and then replated at 37° C. in order to initiate the viral entry process. At 20 minute intervals thereafter, the various cultures were exposed to pH 3.0 citrate buffer, conditions which remove and inactivate surface-bound, but not internalized, HSV virions, and then re-cultured the full 44 hour period required to develop optimal HSV plaques.

For CCCCCCCCCCCCCCCCCCCCCCO [n-docosanol], the “time for internalization to reach completion” value was “more than 1 hour” and the “internalization of HSV complete” value (20 minutes after the shift to 37° C.) was “less than 40%”.
